Data as given in patent publication US20050238679A1, “Taurine-containing preparations for improving the skin barrier” (Beiersdorf AG, priority 2004, published 2005).

Assay: interfacial tension towards water as measure of polarity of lipids
Assay type: physicochemical
Details: lipid/oil component against water; regarded as polar if less than 30 mN/m
Excerpt: Oils and fats differ from one another in their polarity, which is difficult to define. It has already been proposed to adopt the interfacial tension towards water as a measure of the polarity index of an oil or of an oily phase. Then, the lower the interfacial tension between this oily phase and water, the greater the polarity of the oily phase in question. According to the invention, the interfacial tension is regarded as one possible measure of the polarity of a given oil component.
The interfacial tension is the force which acts on an imaginary line one meter in length in the interface between two phases. The physical unit for this interfacial tension is conventionally calculated from the force/length relationship and is usually expressed in mN/m (millinewtons divided by meters). It has a positive sign if it endeavours to reduce the interface. In the converse case, it has a negative sign. For the purposes of the present invention, lipids are regarded as polar if their interfacial tension towards water is less than 30 mN/m.
Nonpolar oils are, for example, those which are chosen from the group of branched and unbranched hydrocarbons and hydrocarbon waxes, in particular Vaseline (petrolatum), paraffin oil, squalane and squalene, polyolefins and hydrogenated polyisobutenes. Among the polyolefins, polydecenes are the preferred substances.

| SMILES | interfacial tension towards water |
| --- | --- |
| CCCCCCCCCCCCCCCCCC(=O)OCCCCCCCC [CETIOL ® 868, Octyl Stearate] | 28.4 mN/m |
| CCCCCCCCCCCCCC(=O)OCC(CCCCCCCC)CCCCCCCCCC (stereo not shown) [MOD, Octyldodeceyl Myristate] | 22.1 mN/m |
| CCCCCCCC(=O)OCC(COC(=O)CCCCCCC)OC(=O)CCCCCCC [TRIVENT ® OCG, Tricaprylin] | 20.2 mN/m |

Further lines, results first:

| interfacial tension towards water | SMILES |
| --- | --- |
| 21.9 mN/m | CCCCCCCCCCCCCCCCCC(=O)OC(C)C [Isopropyl stearate, Isopropyl Stearate] |
| 29.7 mN/m | CCCCCCCCOC(=O)CCCCCCCCCCCCCCC(C)C [PRISORINE ® 2036, Octyl Isostearate] |
| 28.7 mN/m | CCCCCCCCCCCCCCCCCCOC(=O)CCCCCC [TEGOSOFT ® SH, Stearyl Heptanoate] |

Assay: stability of taurine under customary storage conditions
Assay type: physicochemical
Details: various pH values (5<pH<7), customary storage conditions (+6° C., −10° C., rocking test)
Excerpt: On account of its solubility in water, it is used in various bases such as O/W creams, W/O creams, PIT emulsions, hydrous sticks, hydrodispersions etc. […] Dry skin has a reduced skin barrier. Taurine brings about an increase in the skin moisturization of cosmetic preparations. Moisturization of dry skin brings about a strengthening of the skin barrier, which means that foreign substances can penetrate less easily through the skin into the deeper skin layers. However, taurine applied to the skin penetrates […] into the lower skin layers.

| stability | SMILES |
| --- | --- |
| very good stability | NCCS(=O)(=O)O [Taurine, 2-aminoethanesulphonic acid] |
